Numbered stars: 1 amine (or outer) side, 2 acyl side, 3 side chain; on linkers, the order of the positions; unused ones are H or OH. Bridge positions count the residues as written; N and C are the ends. Square brackets hold non-standard residues; d marks the D form. Peptide text beside a SMILES is read from it. * marks the point of attachment. FITC = O=C1OC2(c3ccc(O)cc3Oc3cc(O)ccc32)c2ccc(NC(=S)*)cc21; dNva(5-ylidene) = O=C([C@@H](CCC=[*:3])N[*:1])[*:2]; dAllylGly = C=CC[C@@H](N)C(=O)O
Target: T1, PRMT5-MEP50 (Homo sapiens, UniProt O14744)
T1 construct: The compounds were tested by means of FP with the full-length PRMT5-MEP50 complex; made in house
Assay: Direct binding fluorescence polarization (FP) assay of FITC-labeled peptides
Details: FITC-labeled peptide 1 nM, PRMT5-MEP50 titrated, read-out: KD
Procedure: The assay was performed in a buffer of 50 mM 4-(2-hydroxyethyl)-1-piperazineethanesulfonic acid (HEPES), 250 mM NaCl, 1 mM tris(2-carboxyethyl)phosphine (TCEP), and 0.01% (v/v) Tween 20, pH 8.0, in black, 384-well plates with a total volume of 10 μL per well. […] The plates were incubated at room temperature for 1 to 2 h and analyzed on a plate reader using 485 nm excitation and 535 nm emission wavelength. The assay was performed in triplicate.

T1 sequence (O14744 whole entry): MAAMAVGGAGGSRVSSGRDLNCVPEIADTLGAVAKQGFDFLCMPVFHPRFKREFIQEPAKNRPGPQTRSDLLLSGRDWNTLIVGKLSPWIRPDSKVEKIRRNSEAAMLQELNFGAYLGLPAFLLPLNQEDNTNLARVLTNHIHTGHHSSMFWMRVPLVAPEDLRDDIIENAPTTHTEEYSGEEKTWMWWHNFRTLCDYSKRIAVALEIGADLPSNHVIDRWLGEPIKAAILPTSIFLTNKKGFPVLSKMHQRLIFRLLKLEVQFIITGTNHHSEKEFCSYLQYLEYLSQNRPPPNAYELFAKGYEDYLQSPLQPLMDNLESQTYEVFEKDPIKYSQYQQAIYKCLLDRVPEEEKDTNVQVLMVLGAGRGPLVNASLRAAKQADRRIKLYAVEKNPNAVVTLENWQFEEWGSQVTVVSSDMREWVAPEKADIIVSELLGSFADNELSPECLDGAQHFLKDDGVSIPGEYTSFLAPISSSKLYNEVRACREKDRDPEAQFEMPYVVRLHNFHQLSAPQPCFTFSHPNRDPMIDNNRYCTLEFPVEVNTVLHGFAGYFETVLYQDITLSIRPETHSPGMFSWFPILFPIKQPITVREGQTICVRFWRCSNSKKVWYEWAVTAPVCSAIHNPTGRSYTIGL
T1 sequence (Q9BQA1 whole entry partner): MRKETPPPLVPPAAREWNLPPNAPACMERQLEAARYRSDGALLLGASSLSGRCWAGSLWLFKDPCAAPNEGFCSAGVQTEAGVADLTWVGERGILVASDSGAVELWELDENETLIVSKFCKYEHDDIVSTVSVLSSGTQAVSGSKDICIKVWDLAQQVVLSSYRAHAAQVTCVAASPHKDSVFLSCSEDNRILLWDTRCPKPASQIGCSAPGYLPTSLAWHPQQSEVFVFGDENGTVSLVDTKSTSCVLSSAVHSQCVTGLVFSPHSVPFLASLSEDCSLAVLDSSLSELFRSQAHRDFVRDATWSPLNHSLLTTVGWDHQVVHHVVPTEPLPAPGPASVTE

Row | Kd | Structure (SMILES)
1 | 0.719 ± 0.041 µM | CC(C)[C@H](NC(=O)[C@H](CCCNC(=N)N)NC(=O)[C@H](CO)NC(=O)COCCOCCNC(=S)Nc1ccc2c(c1)C(=O)OC21c2ccc(O)cc2Oc2cc(O)ccc21)C(=O)N[C@H](C(=O)N1CCC[C@H]1C(=O)NC1CC=CC[C@@H](C(=O)N[C@@H](CC(=O)O)C(=O)N[C@@H](C)C(=O)N[C@@H](CC(=O)O)C(N)=O)NC(=O)[C@H](Cc2ccccc2)NC(=O)[C@H](CCC(N)=O)NC1=O)C(C)C (stereo in doubt) [Compound 13]
2 | 0.43 ± 0.096 µM | CC(=O)N[C@H](C(=O)N1CCC[C@H]1C(=O)NC1CCCCC[C@@H](C(=O)N[C@@H](CC(=O)O)C(=O)N[C@@H](C)C(=O)N[C@@H](CC(=O)O)C(=O)N[C@@H](CCCCNC(=S)Nc2ccc3c(c2)C(=O)OC32c3ccc(O)cc3Oc3cc(O)ccc32)C(N)=O)NC(=O)[C@H](Cc2ccccc2)NC(=O)[C@H](CCC(N)=O)NC1=O)C(C)C (stereo in doubt) [Compound 21]
3 | > 2 µM | CC(=O)NC1CCCCC[C@@H](C(=O)N[C@@H](CC(=O)O)C(=O)N[C@@H](C)C(=O)N[C@@H](CC(C(=O)O)C(=O)O)C(=O)N[C@@H](CCCCNC(=S)Nc2ccc3c(c2)C(=O)OC32c3ccc(O)cc3Oc3cc(O)ccc32)C(N)=O)NC(=O)[C@H](Cc2ccc([N+](=O)[O-])cc2)NC(=O)[C@H](CCC(N)=O)NC1=O (stereo in doubt) [Compound 51]
4 | 0.352 ± 0.049 µM | CC(=O)N[C@H](C(=O)N1CCC[C@H]1C(=O)NC1CC=CCC[C@@H](C(=O)N[C@@H](CC(=O)O)C(=O)N[C@@H](C)C(=O)N[C@@H](CC(=O)O)C(=O)N[C@@H](CCCCNC(=S)Nc2ccc3c(c2)C(=O)OC32c3ccc(O)cc3Oc3cc(O)ccc32)C(N)=O)NC(=O)[C@H](Cc2ccccc2)NC(=O)[C@H](CCC(N)=O)NC1=O)C(C)C (stereo partly shown) [Compound 18]

Same assay, conditions: supplementary CSV, read-out: PRMT5-MEP50 Kd

Row | Kd | Structure (SMILES)
5 | > 2 µM | CC(C)[C@H](NC(=O)[C@H](CCCNC(=N)N)NC(=O)[C@H](CO)NC(=O)COCCOCCNC(=S)Nc1ccc2c(c1)C(=O)OC21c2ccc(O)cc2Oc2cc(O)ccc21)C(=O)N[C@H](C(=O)N1CCC[C@H]1C(=O)N[C@@H]1CC=CC[C@H](C(=O)N[C@@H](CC(=O)O)C(=O)N[C@@H](C)C(=O)N[C@@H](CC(=O)O)C(N)=O)NC(=O)[C@H](Cc2ccccc2)NC(=O)[C@H](CCC(N)=O)NC1=O)C(C)C (single isomer, unassigned) [15 (isomer 1)]
6 | > 2 µM | CC(C)[C@H](NC(=O)[C@H](CCCNC(=N)N)NC(=O)[C@H](CO)NC(=O)COCCOCCNC(=S)Nc1ccc2c(c1)C(=O)OC21c2ccc(O)cc2Oc2cc(O)ccc21)C(=O)N[C@H](C(=O)N1CCC[C@H]1C(=O)NC1CNC(=O)C[C@@H](C(=O)N[C@@H](CC(=O)O)C(=O)N[C@@H](C)C(=O)N[C@@H](CC(=O)O)C(N)=O)NC(=O)[C@H](Cc2ccccc2)NC(=O)[C@H](CCC(N)=O)NC1=O)C(C)C (stereo in doubt) [Compound 5]
7 | > 2 µM | CC(C)[C@H](NC(=O)[C@H](CCCNC(=N)N)NC(=O)[C@H](CO)NC(=O)COCCOCCNC(=S)Nc1ccc2c(c1)C(=O)OC21c2ccc(O)cc2Oc2cc(O)ccc21)C(=O)N[C@H](C(=O)N1CCC[C@H]1C(=O)NC1CNC(=O)CC[C@@H](C(=O)N[C@@H](CC(=O)O)C(=O)N[C@@H](C)C(=O)N[C@@H](CC(=O)O)C(N)=O)NC(=O)[C@H](Cc2ccccc2)NC(=O)[C@H](CCC(N)=O)NC1=O)C(C)C (stereo in doubt) [Compound 6]
8 | > 2 µM | CC(C)[C@H](NC(=O)[C@H](CCCNC(=N)N)NC(=O)[C@H](CO)NC(=O)COCCOCCNC(=S)Nc1ccc2c(c1)C(=O)OC21c2ccc(O)cc2Oc2cc(O)ccc21)C(=O)N[C@H](C(=O)N1CCC[C@H]1C(=O)NC1CCNC(=O)C[C@@H](C(=O)N[C@@H](CC(=O)O)C(=O)N[C@@H](C)C(=O)N[C@@H](CC(=O)O)C(N)=O)NC(=O)[C@H](Cc2ccccc2)NC(=O)[C@H](CCC(N)=O)NC1=O)C(C)C (stereo in doubt) [Compound 7]
9 | > 2 µM | CC(C)[C@H](NC(=O)[C@H](CCCNC(=N)N)NC(=O)[C@H](CO)NC(=O)COCCOCCNC(=S)Nc1ccc2c(c1)C(=O)OC21c2ccc(O)cc2Oc2cc(O)ccc21)C(=O)N[C@H](C(=O)N1CCC[C@H]1C(=O)NC1CCNC(=O)CC[C@@H](C(=O)N[C@@H](CC(=O)O)C(=O)N[C@@H](C)C(=O)N[C@@H](CC(=O)O)C(N)=O)NC(=O)[C@H](Cc2ccccc2)NC(=O)[C@H](CCC(N)=O)NC1=O)C(C)C (stereo in doubt) [Compound 8]
10 | > 2 µM | CC(C)[C@H](NC(=O)[C@H](CCCNC(=N)N)NC(=O)[C@H](CO)NC(=O)COCCOCCNC(=S)Nc1ccc2c(c1)C(=O)OC21c2ccc(O)cc2Oc2cc(O)ccc21)C(=O)N[C@H](C(=O)N1CCC[C@H]1C(=O)N[C@@H]1CNC(=O)C[C@H](C(=O)N[C@@H](CC(=O)O)C(=O)N[C@@H](C)C(=O)N[C@@H](CC(=O)O)C(N)=O)NC(=O)[C@H](Cc2ccccc2)NC(=O)[C@H](CCC(N)=O)NC1=O)C(C)C [Compound 9]
11 | > 2 µM | CC(C)[C@H](NC(=O)[C@H](CCCNC(=N)N)NC(=O)[C@H](CO)NC(=O)COCCOCCNC(=S)Nc1ccc2c(c1)C(=O)OC21c2ccc(O)cc2Oc2cc(O)ccc21)C(=O)N[C@H](C(=O)N1CCC[C@H]1C(=O)N[C@@H]1CNC(=O)CC[C@H](C(=O)N[C@@H](CC(=O)O)C(=O)N[C@@H](C)C(=O)N[C@@H](CC(=O)O)C(N)=O)NC(=O)[C@H](Cc2ccccc2)NC(=O)[C@H](CCC(N)=O)NC1=O)C(C)C [Compound 10]
12 | > 2 µM | CC(C)[C@H](NC(=O)[C@H](CCCNC(=N)N)NC(=O)[C@H](CO)NC(=O)COCCOCCNC(=S)Nc1ccc2c(c1)C(=O)OC21c2ccc(O)cc2Oc2cc(O)ccc21)C(=O)N[C@H](C(=O)N1CCC[C@H]1C(=O)N[C@@H]1CCNC(=O)C[C@H](C(=O)N[C@@H](CC(=O)O)C(=O)N[C@@H](C)C(=O)N[C@@H](CC(=O)O)C(N)=O)NC(=O)[C@H](Cc2ccccc2)NC(=O)[C@H](CCC(N)=O)NC1=O)C(C)C [Compound 11]
13 | > 2 µM | CC(C)[C@H](NC(=O)[C@H](CCCNC(=N)N)NC(=O)[C@H](CO)NC(=O)COCCOCCNC(=S)Nc1ccc2c(c1)C(=O)OC21c2ccc(O)cc2Oc2cc(O)ccc21)C(=O)N[C@H](C(=O)N1CCC[C@H]1C(=O)N[C@@H]1CCNC(=O)CC[C@H](C(=O)N[C@@H](CC(=O)O)C(=O)N[C@@H](C)C(=O)N[C@@H](CC(=O)O)C(N)=O)NC(=O)[C@H](Cc2ccccc2)NC(=O)[C@H](CCC(N)=O)NC1=O)C(C)C [Compound 12]
14 | > 2 µM | CC(C)[C@H](NC(=O)[C@H](CCCNC(=N)N)NC(=O)[C@H](CO)NC(=O)COCCOCCNC(=S)Nc1ccc2c(c1)C(=O)OC21c2ccc(O)cc2Oc2cc(O)ccc21)C(=O)N[C@H](C(=O)N1CCC[C@H]1C(=O)N[C@@H]1CCCC[C@H](C(=O)N[C@@H](CC(=O)O)C(=O)N[C@@H](C)C(=O)N[C@@H](CC(=O)O)C(N)=O)NC(=O)[C@H](Cc2ccccc2)NC(=O)[C@H](CCC(N)=O)NC1=O)C(C)C [Compound 16]
15 | > 2 µM | CC(=O)N[C@H](C(=O)N1CCC[C@H]1C(=O)N[C@@H]1CC=CCC[C@H](C(=O)N[C@@H](CC(=O)O)C(=O)N[C@@H](C)C(=O)N[C@@H](CC(=O)O)C(=O)N[C@@H](CCCCNC(=S)Nc2ccc3c(c2)C(=O)OC32c3ccc(O)cc3Oc3cc(O)ccc32)C(N)=O)NC(=O)[C@H](Cc2ccccc2)NC(=O)[C@H](CCC(N)=O)NC1=O)C(C)C [Compound 23]
16 | > 2 µM | CC(=O)N[C@H](C(=O)N1CCC[C@H]1C(=O)N[C@@H]1CCCCC[C@H](C(=O)N[C@@H](CC(=O)O)C(=O)N[C@@H](C)C(=O)N[C@@H](CC(=O)O)C(=O)N[C@@H](CCCCNC(=S)Nc2ccc3c(c2)C(=O)OC32c3ccc(O)cc3Oc3cc(O)ccc32)C(N)=O)NC(=O)[C@H](Cc2ccccc2)NC(=O)[C@H](CCC(N)=O)NC1=O)C(C)C [Compound 26]

Second part, the compound before the results:

Row | Structure (SMILES) | Kd
17 | CC(=O)N[C@H](C(=O)N1CCC[C@H]1C(=O)N[C@@H]1CC=CCC[C@@H](C(=O)N[C@@H](CC(=O)O)C(=O)N[C@@H](C)C(=O)N[C@@H](CC(=O)O)C(=O)N[C@@H](CCCCNC(=S)Nc2ccc3c(c2)C(=O)OC32c3ccc(O)cc3Oc3cc(O)ccc32)C(N)=O)NC(=O)[C@H](Cc2ccccc2)NC(=O)[C@H](CCC(N)=O)NC1=O)C(C)C (single isomer, unassigned) [18 (isomer 1)] | 0.352 ± 0.049 µM
18 | CC(=O)N[C@H](C(=O)N1CCC[C@H]1C(=O)NC1CC=CC[C@@H](C(=O)N[C@@H](CC(=O)O)C(=O)N[C@@H](C)C(=O)N[C@@H](CC(=O)O)C(=O)N[C@@H](CCCCNC(=S)Nc2ccc3c(c2)C(=O)OC32c3ccc(O)cc3Oc3cc(O)ccc32)C(N)=O)NC(=O)[C@H](Cc2ccccc2)NC(=O)[C@H](CCC(N)=O)NC1=O)C(C)C (stereo in doubt) [Compound 17] | 0.452 ± 0.001 µM
19 | CC(=O)N[C@H](C(=O)N1CCC[C@H]1C(=O)NC1CCC=CCC[C@@H](C(=O)N[C@@H](CC(=O)O)C(=O)N[C@@H](C)C(=O)N[C@@H](CC(=O)O)C(=O)N[C@@H](CCCCNC(=S)Nc2ccc3c(c2)C(=O)OC32c3ccc(O)cc3Oc3cc(O)ccc32)C(N)=O)NC(=O)[C@H](Cc2ccccc2)NC(=O)[C@H](CCC(N)=O)NC1=O)C(C)C (stereo in doubt) [Compound 20] | > 2 µM
20 | CC(=O)N1CCC[C@H]1C(=O)N[C@H](C(=O)NC1CCCCC[C@@H](C(=O)N[C@@H](Cc2ccc([N+](=O)[O-])cc2)C(=O)N[C@@H](CC(C(=O)O)C(=O)O)C(=O)N[C@@H](CCC(N)=O)C(=O)N[C@@H](CCCCNC(=S)Nc2ccc3c(c2)C(=O)OC32c3ccc(O)cc3Oc3cc(O)ccc32)C(N)=O)NC(=O)[C@H](CC(=O)O)NC(=O)[C@H](C)NC1=O)C(C)C (stereo in doubt) [Compound 52] | > 2 µM
21 | CC(=O)N[C@H](C(=O)N1CCC[C@H]1C(=O)N[C@@H]1CCC=CC[C@H](C(=O)N[C@@H](CC(=O)O)C(=O)N[C@@H](C)C(=O)N[C@@H](CC(=O)O)C(=O)N[C@@H](CCCCNC(=S)Nc2ccc3c(c2)C(=O)OC32c3ccc(O)cc3Oc3cc(O)ccc32)C(N)=O)NC(=O)[C@H](Cc2ccccc2)NC(=O)[C@H](CCC(N)=O)NC1=O)C(C)C [Compound 24] (Ac-VP[dNva(5-ylidene)]QF[dAllylGly]DADK(FITC)-NH2; staple 3-6) | > 2 µM
22 | CC(=O)N[C@H](C(=O)N1CCC[C@H]1C(=O)N[C@@H]1CCCCCC[C@H](C(=O)N[C@@H](CC(=O)O)C(=O)N[C@@H](C)C(=O)N[C@@H](CC(=O)O)C(=O)N[C@@H](CCCCNC(=S)Nc2ccc3c(c2)C(=O)OC32c3ccc(O)cc3Oc3cc(O)ccc32)C(N)=O)NC(=O)[C@H](Cc2ccccc2)NC(=O)[C@H](CCC(N)=O)NC1=O)C(C)C [Compound 27] | > 2 µM

— publication PMC9706563, “Development of Macrocyclic PRMT5–Adaptor Protein Interaction Inhibitors” (Journal of Medicinal Chemistry, 2022)
